Experimental data: patent US20260364184A1, “COMPOUND BASED ON OXOISOINDOLINYL-SUBSTITUTED TETRAHYDROPYRIMIDINE-DIONE AND USE THEREOF” (GLUETACS THERAPEUTICS (SHANGHAI) CO., LTD., priority 2023, published 2026)

Experiments:
Assay type in all cases: cell-based
BRM = molecular target: T1, BRM (Homo sapiens, UniProt P51531); test: Western blot degradation of BRM (SMARCA2); settings: Molt-4 Cell; 24 hours
T1 construct: expression of target proteins in cells; endogenous in cells
Experimental: (§1) Conventional Western blot assay was performed to evaluate the effects of the compounds of the present disclosure on the expression of target proteins in cells.
(§2) (1) Cell Seeding and Protein Harvesting: The selected cells were processed according to the cell seeding procedure and protein harvesting procedure in Table II-2.
(§3) (2) To the collected supernatant, 5×SDS sample loading buffer was added, followed by denaturation at 95 °C for 5 minutes. The denatured samples were then separated by SDS-PAGE electrophoresis on a polyacrylamide gel. Proteins were transferred to a nitrocellulose membrane (0.45 μm NC membrane), blocked with blocking buffer at room temperature for 1 hour, and subjected to antibody incubation and development procedures according to the antibody manufacturer's instructions (Cell Signaling Technology).
(§4) Half-Maximal Degradation Concentration value (the drug concentration required for degrading proteins by 50%, abbreviated as DC50) reads method: comparing the grayscale values of Western blot bands from drug-treated samples with those from blank DMSO-treated controls, and identifying the drug concentration range at which the grayscale value is half that of the DMSO-treated control bands.
(§5) DC50 values can be calculated using ImageJ software to measure grayscale values of Western blot bands from drug-treated samples. The concentration-response curve is fitted to estimate the drug concentration corresponding to half the grayscale value.
(§6) Target protein remaining (%) refers to the percentage of target protein remaining in cells after treatment with protein degrader compounds.
(§7) Calculation method for target protein remaining (%): Use ImageJ software to measure grayscale values of Western blot bands from drug (protein degrader)-treated samples. The grayscale value of drug-treated bands is divided by that of internal control protein bands, and the resulting quotient is normalized to obtain the relative percentage of remaining target protein after protein degrader treatment.
(§8) Target protein degradation rate (%)=1−target protein remaining (%).

BRG1 = molecular target: T2, BRG1 (Homo sapiens, UniProt P51532); test: Western blot degradation of BRG1 (SMARCA4); settings: Molt-4 Cell; 24 hours
T2 construct: expression of target proteins in cells; endogenous in cells
T2 sequence (P51532 whole entry): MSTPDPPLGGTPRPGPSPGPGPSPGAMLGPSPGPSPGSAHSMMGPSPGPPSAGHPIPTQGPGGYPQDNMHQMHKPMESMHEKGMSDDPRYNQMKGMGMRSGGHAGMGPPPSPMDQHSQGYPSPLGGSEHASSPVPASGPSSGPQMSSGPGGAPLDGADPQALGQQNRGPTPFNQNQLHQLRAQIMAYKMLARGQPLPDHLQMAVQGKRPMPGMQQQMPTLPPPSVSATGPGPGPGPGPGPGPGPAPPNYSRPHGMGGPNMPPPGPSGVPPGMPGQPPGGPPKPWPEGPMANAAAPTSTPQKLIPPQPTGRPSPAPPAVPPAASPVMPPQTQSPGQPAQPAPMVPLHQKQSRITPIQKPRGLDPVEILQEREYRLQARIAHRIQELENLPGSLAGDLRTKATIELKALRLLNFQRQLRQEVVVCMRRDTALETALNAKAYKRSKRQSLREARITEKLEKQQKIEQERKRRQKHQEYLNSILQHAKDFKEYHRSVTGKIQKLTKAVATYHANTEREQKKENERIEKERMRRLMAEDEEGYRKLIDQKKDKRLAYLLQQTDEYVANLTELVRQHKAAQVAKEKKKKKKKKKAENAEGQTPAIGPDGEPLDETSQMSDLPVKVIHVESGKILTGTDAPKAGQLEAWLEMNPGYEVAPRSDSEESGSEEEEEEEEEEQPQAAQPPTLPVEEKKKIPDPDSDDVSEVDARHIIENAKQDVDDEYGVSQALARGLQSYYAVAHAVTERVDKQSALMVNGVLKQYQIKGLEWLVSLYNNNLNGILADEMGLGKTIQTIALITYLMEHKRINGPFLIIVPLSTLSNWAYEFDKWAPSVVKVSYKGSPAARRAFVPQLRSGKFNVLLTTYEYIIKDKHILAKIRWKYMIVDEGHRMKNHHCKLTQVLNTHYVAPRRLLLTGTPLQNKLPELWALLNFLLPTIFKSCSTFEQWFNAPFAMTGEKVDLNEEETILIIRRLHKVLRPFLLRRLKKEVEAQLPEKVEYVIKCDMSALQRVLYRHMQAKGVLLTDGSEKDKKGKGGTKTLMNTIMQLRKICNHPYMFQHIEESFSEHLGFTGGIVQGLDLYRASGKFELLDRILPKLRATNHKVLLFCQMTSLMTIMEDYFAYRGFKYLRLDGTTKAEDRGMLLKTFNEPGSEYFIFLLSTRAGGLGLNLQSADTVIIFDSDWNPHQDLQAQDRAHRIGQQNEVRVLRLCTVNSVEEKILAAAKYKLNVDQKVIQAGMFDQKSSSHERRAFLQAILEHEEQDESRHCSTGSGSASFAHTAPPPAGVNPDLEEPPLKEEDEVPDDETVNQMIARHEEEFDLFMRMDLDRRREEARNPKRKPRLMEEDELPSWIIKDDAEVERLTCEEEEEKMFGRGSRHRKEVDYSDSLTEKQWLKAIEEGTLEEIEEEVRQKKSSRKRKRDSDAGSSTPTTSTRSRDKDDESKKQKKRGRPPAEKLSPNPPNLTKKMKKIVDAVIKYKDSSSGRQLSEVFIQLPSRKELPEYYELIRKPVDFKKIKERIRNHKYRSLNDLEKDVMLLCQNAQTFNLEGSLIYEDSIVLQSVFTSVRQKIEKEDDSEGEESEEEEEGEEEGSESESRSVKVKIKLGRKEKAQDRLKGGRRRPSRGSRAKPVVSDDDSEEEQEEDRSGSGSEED
Experimental: as §1, §2, §3, §4, §5, §6, §7, §8

C-ABL = molecular target: T3, C-ABL (Homo sapiens, UniProt P00519); test: Western blot degradation of C-ABL; settings: K562 Cell; 24 hours
T3 construct: K562 also holds p210 BCR-ABL (BCR P11274 fused to ABL1)
T3 sequence (P00519 whole entry, the tested form may be a part): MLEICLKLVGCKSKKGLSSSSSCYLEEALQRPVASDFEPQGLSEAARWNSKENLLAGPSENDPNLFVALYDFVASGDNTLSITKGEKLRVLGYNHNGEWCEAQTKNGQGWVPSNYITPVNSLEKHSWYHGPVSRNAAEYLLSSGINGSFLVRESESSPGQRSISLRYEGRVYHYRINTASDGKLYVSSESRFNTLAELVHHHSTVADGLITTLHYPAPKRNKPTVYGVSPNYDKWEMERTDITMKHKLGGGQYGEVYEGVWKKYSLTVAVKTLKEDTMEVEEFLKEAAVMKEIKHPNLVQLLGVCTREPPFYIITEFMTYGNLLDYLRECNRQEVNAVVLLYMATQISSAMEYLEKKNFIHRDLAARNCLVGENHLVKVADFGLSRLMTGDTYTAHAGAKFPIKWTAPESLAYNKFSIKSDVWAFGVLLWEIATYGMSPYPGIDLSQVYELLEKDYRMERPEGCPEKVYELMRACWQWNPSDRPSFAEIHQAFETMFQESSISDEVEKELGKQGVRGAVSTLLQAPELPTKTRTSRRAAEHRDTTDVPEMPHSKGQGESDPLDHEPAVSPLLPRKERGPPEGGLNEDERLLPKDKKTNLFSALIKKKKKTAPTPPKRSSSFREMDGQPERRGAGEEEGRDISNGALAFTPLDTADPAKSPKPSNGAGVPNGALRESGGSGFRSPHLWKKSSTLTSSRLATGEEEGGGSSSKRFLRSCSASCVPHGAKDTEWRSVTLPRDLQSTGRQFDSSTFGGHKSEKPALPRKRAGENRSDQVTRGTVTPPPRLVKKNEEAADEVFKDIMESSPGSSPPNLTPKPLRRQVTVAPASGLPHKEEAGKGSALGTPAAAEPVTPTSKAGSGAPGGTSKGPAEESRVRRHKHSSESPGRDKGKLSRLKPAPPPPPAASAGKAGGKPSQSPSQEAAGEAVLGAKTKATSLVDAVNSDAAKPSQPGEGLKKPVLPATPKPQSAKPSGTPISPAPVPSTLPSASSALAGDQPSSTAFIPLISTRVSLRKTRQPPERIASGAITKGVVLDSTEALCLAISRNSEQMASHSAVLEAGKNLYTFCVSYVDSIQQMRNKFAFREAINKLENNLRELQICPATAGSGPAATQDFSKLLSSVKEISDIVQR
T3 sequence (Q96SW2 whole entry partner, the tested form may be a part): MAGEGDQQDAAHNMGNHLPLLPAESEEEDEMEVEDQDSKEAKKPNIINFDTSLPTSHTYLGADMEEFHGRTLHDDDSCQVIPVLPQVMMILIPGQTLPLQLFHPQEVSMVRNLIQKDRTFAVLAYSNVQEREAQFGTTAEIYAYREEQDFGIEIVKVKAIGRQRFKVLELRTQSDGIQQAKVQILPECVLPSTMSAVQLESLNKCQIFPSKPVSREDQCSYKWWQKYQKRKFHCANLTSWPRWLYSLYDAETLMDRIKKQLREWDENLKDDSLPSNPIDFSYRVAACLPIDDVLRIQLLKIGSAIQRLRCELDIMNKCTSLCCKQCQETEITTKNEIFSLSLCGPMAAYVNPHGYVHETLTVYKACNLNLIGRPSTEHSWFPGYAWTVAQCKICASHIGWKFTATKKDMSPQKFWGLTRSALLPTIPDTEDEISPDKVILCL
Experimental: as §1, §2, §3, §4, §5, §6, §7, §8

[1] = tested on: Human myeloid monocytic leukemia cell line (MV-4-11); test: Inhibition of MV-4-11 cell proliferation (CellTiter luminescent viability); settings: Homo sapiens, MV4-11, Table IL2, BCR-ABL inhibitor-based, 96 hours
How it was run: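 Cells are seeded in 96-well plates, cultured at 37 °C, 5% CO2, and treated next day with 5-fold serial compound dilutions (stock series from 2000 μM; 0.5 μL into 100 μL medium). Viability is read by CellTiter-Meiluncell luminescence after the set exposure, and IC50 is taken from growth-inhibition curves.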

T1 sequence (P51531 whole entry): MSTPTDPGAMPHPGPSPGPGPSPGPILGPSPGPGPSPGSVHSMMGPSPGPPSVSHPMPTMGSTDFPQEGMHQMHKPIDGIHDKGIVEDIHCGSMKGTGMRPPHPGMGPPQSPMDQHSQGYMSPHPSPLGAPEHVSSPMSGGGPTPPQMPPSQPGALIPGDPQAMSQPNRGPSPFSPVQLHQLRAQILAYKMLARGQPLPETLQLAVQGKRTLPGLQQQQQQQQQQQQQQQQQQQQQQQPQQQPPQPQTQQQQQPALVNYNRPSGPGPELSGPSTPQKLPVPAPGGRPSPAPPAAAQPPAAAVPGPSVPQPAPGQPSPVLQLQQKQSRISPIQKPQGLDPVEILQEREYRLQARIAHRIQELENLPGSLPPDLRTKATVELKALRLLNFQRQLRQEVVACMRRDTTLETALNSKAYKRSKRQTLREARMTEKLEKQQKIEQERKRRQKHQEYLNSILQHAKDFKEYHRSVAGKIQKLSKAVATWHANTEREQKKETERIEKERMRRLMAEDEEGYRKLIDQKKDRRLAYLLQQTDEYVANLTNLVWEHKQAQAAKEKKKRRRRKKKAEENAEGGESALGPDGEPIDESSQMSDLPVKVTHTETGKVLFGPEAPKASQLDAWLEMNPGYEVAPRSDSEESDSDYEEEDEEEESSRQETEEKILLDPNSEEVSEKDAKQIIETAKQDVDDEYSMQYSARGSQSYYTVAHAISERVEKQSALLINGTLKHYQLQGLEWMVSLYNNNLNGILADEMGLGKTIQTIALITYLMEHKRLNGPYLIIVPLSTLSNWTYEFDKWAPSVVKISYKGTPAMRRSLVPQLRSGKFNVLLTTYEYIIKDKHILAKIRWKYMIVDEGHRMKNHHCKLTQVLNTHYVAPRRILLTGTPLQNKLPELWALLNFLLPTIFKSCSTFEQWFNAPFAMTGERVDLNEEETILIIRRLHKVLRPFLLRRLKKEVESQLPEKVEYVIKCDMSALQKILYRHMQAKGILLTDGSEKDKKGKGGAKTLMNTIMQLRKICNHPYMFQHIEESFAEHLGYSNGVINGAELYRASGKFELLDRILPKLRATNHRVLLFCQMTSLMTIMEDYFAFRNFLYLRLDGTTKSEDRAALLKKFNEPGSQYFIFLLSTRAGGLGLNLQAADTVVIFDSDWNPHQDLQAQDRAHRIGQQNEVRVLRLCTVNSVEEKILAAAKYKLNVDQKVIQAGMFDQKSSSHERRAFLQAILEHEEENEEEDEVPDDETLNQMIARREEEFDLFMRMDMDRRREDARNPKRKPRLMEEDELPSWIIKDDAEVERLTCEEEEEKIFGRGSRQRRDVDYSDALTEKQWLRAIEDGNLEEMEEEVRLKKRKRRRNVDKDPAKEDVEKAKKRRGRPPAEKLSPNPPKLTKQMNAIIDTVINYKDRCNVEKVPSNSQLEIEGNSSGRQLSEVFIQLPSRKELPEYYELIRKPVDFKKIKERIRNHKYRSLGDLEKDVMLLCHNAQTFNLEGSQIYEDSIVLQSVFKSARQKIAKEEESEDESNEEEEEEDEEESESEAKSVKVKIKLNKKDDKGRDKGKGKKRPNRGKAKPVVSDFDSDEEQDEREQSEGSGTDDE

Row | Structure (SMILES) | Degradation of substrate protein BRM (substrate protein remaining %) (BRM) | Degradation of substrate protein BRG1 (substrate protein remaining %) (BRG1) | Degradation of substrate protein C-ABL; BCR-ABL (substrate protein remaining %) (C-ABL) | inhibition at 0.01 µM ([1]; MV-4-11, 10 nM, read-out: Inhibition Rate at 10 nM (%)) [%] | inhibition at 0.5 µM ([1]; MV-4-11, 500 nM, read-out: Inhibition Rate at 500 nM (%)) [%]
1 | Nc1nnc(-c2cc(F)ccc2O)cc1N1CCN(Cc2ccc3c(c2)CN(N2CCC(=O)NC2=O)C3=O)CC1 [GT-05061, 1-(5-((4-(3-amino-6-(5-fluoro-2-hydroxyphenyl)pyridazin-4-yl)piperazin-1-yl)methyl)-1-oxoisoindolin-2-yl)dihydropyrimidine-2,4 (1H,3H)-dione] | A (0%≤substrate protein remaining %≤80%) | B (80%<substrate protein remaining %≤100%) |  |  | 
2 | Nc1nnc(-c2cc(F)ccc2O)cc1N1CCN(CC2CCN(c3ccc4c(c3)C(=O)N(N3CCC(=O)NC3=O)C4=O)CC2)CC1 [GT-05068, 5-(4-((4-(3-amino-6-(5-fluoro-2-hydroxyphenyl)pyridazin-4-yl)piperazin-1-yl)methyl)piperidin-1-yl)-2-(2,4-dioxotetrahydropyrimidin-1(2H)-yl)isoindoline-1,3-dione] | A (0%≤substrate protein remaining %≤80%) | B (80%<substrate protein remaining %≤100%) |  |  | 
3 | Nc1nnc(-c2cc(F)ccc2O)cc1N1CCN(CC2CCN(c3cccc4c3C(=O)N(N3CCC(=O)NC3=O)C4=O)CC2)CC1 [GT-05069, 4-(4-((4-(3-amino-6-(5-fluoro-2-hydroxyphenyl)pyridazin-4-yl)piperazin-1-yl)methyl)piperidin-1-yl)-2-(2,4-dioxotetrahydropyrimidin-1(2H)-yl)isoindoline-1,3-dione] | A (0%≤substrate protein remaining %≤80%) | A (0%≤substrate protein remaining %≤80%) |  |  | 
4 | Nc1nnc(-c2ccccc2O)cc1N1CCN(CC2CCN(c3cccc4c3C(=O)N(N3CCC(=O)NC3=O)C4=O)CC2)CC1 [GT-05070, 4-(4-((4-(3-amino-6-(2-hydroxyphenyl)pyridazin-4-yl)piperazin-1-yl)methyl)piperidin-1-yl)-2-(2,4-dioxotetrahydropyrimidin-1(2H)-yl)isoindoline-1,3-dione] | A (0%≤substrate protein remaining %≤80%) | B (80%<substrate protein remaining %≤100%) |  |  | 
5 | Nc1nnc(-c2ccccc2O)cc1N1CCN(Cc2ccc3c(c2)C(=O)N(N2CCC(=O)NC2=O)C3=O)CC1 [GT-05071, 5-((4-(3-amino-6-(2-hydroxyphenyl)pyridazin-4-yl)piperazin-1-yl)methyl)-2-(2,4-dioxotetrahydropyrimidin-1(2H)-yl)isoindoline-1,3-dione] | A (0%≤substrate protein remaining %≤80%) | B (80%<substrate protein remaining %≤100%) |  |  | 
6 | Nc1nnc(-c2cc(F)ccc2O)cc1N1CCN(Cc2ccc3c(c2)C(=O)N(N2CCC(=O)NC2=O)C3=O)CC1 [GT-05072, 5-((4-(3-amino-6-(5-fluoro-2-hydroxyphenyl)pyridazin-4-yl)piperazin-1-yl)methyl)-2-(2,4-dioxotetrahydropyrimidin-1(2H)-yl)isoindoline-1,3-dione] | A (0%≤substrate protein remaining %≤80%) | B (80%<substrate protein remaining %≤100%) |  |  | 
7 | Nc1nnc(-c2cc(F)ccc2O)cc1N1CCN(CC2CCN(C3CCN(c4ccc5c(c4)C(=O)N(N4CCC(=O)NC4=O)C5=O)CC3)CC2)CC1 [GT-05094, 5-(4-((4-(3-amino-6-(5-fluoro-2-hydroxyphenyl)pyridazin-4-yl)piperazin-1-yl)methyl)-[1,4′-bipiperidin]-1′-yl)-2-(2,4-dioxotetrahydropyrimidin-1(2H)-yl)isoindoline-1,3-dione] | A (0%≤substrate protein remaining %≤80%) | B (80%<substrate protein remaining %≤100%) |  |  | 
8 | Nc1nnc(-c2ccccc2O)cc1N1CCN(CC2CCN(C3CCN(c4ccc5c(c4)C(=O)N(N4CCC(=O)NC4=O)C5=O)CC3)CC2)CC1 [GT-05095, 5-(4-((4-(3-amino-6-(2-hydroxyphenyl)pyridazin-4-yl)piperazin-1-yl)methyl)-[1,4′-bipiperidin]-1′-yl)-2-(2,4-dioxotetrahydropyrimidin-1(2H)-yl)isoindoline-1,3-dione] | A (0%≤substrate protein remaining %≤80%) | B (80%<substrate protein remaining %≤100%) |  |  | 
9 | Cc1ccc(C(=O)Nc2ccc(N3CCN(Cc4ccc5c(c4)C(=O)N(N4CCC(=O)NC4=O)C5=O)CC3)c(C(F)(F)F)c2)cc1C#Cc1cnc2cccnn12 [GT-08219, N-(4-(4-((2-(2,4-dioxotetrahydropyrimidin-1(2H)-yl)-1,3-dioxoisoindolin-5-yl)methyl)piperazin-1-yl)-3-(trifluoromethyl)phenyl)-3-(imidazo[1,2-b]pyridazin-3-ylethynyl)-4-methylbenzamide] |  |  | A (0%≤substrate protein remaining %≤80%) |  | 
10 | Cc1ccc(C(=O)Nc2ccc(N3CCC(N(C)Cc4ccc5c(c4)CN(N4CCC(=O)NC4=O)C5=O)CC3)c(C(F)(F)F)c2)cc1C#Cc1cnc2cccnn12 [GT-08220, N-(4-(4-(((2-(2,4-dioxotetrahydropyrimidin-1(2H)-yl)-1-oxoisoindolin-5-yl)methyl)(methyl)amino)piperidin-1-yl)-3-(trifluoromethyl)phenyl)-3-(imidazo[1,2-b]pyridazin-3-ylethynyl)-4-methylbenzamide] |  |  | A (0%≤substrate protein remaining %≤80%) | -5 to 0 | 80 to 100
11 | O=C1CCN(N2C(=O)c3cccc(N4CCC(CN5CCN(c6ncc(C(=O)Nc7ccc(OC(F)(F)Cl)cc7)cc6-c6cc[nH]n6)CC5)CC4)c3C2=O)C(=O)N1 [GT-08357, N-(4-(chlorodifluoromethoxy)phenyl)-6-(4-((1-(2-(2,4-dioxotetrahydropyrimidin-1(2H)-yl)-1,3-dioxoisoindolin-4-yl)piperidin-4-yl)methyl)piperazin-1-yl)-5-(1H-pyrazol-3-yl)nicotinamide] |  |  | A (0%≤substrate protein remaining %≤80%) |  | 
12 | O=C1CCN(N2C(=O)c3ccc(N4CCC(CN5CCC(N6CCN(c7ncc(C(=O)Nc8ccc(OC(F)(F)Cl)cc8)cc7-c7cc[nH]n7)CC6)CC5)CC4)cc3C2=O)C(=O)N1 [GT-08358, N-(4-(chlorodifluoromethoxy)phenyl)-6-(4-(1-((1-(2-(2,4-dioxotetrahydropyrimidin-1(2H)-yl)-1,3-dioxoisoindolin-5-yl)piperidin-4-yl)methyl)piperidin-4-yl)piperazin-1-yl)-5-(1H-pyrazol-3-yl)nicotinamide] |  |  | A (0%≤substrate protein remaining %≤80%) |  | 
